The record followed here is US20080206198A1, “Compounds and methods for pharmico-gene therapy of epithelial sodium channel associated disorders” (priority 2003, published 2008).

Series [1] deals with mice. The series is described as follows: Toxicity of proteasome inhibitors in mice (intra-tracheal and IV). Particulars: 10, 100 and 1000 fold higher doses than used in polarized airway cells. The series is classed as in vivo, mouse. How it is done:
Long-term enhancement of rAAV transduction by proteasome inhibitor in vivo. To evaluate the potential utility of proteasome inhibitors for in vivo gene therapy, both the toxicity and efficacy of these agents for in vivo rAAV mediated gene transfer in the mouse lung was tested. To assess the toxicity of these proteasome inhibitors in mice, 10, 100, and 1000 fold higher effective doses of LLnL or Z-LLL were administered than used to induce gene transfer in polarized airway cells, using both intra-tracheal and systemic (IV) delivery. No toxicity was indicated by histologic evaluation of the lung and liver or was evidenced by the death of animals. To investigate whether these proteasome inhibitors could improve rAAV transduction in vivo, AV.LacZ (5×10^10 particles) was delivered either alone or in the presence of 400 μM Z-LLL by intranasal administration. Mouse lungs were harvested at 3, 10 and 150 days post-infection to evaluate short and long term effects. […] Targeted transgene expression was predominantly confined to the conducting airways, rather than in the parenchyma. Alveolar cells were rarely transduced. […] The range of transgene expression in distal and proximal airways was 0 to 4% and 5 to 18%, respectively.

Series [2] concerns primary human fibroblasts. The series is classed as cell-based. As to conditions: confluent primary human fibroblasts treated prior to rAAV infection; FACS at 96 hours post-infection. The procedure: Initial studies were performed in confluent primary human fibroblasts since dose titrations and toxicity could be quickly assessed. Selected agents were used to treat fibroblast monolayers prior to rAAV infection. rAAV transduction was assessed at 96 hours post-infection by FACS analysis, and the percentage of dead cells was simultaneously assessed by incorporation of propidium iodide.
These tripeptides are structurally related to chloroquine but have different lipid solubility and specificity for cysteine proteases (Seglen, 1983). These molecules decrease endosomal degradation of molecules by a mechanism different than altering pH.

Series [3] has as its system liver. As to the kind of experiment: rAAV transduction in liver with Z-LLL. The series is classed as in vivo, mouse. As to conditions: 1 month post-infection. The procedure:
Recombinant AV.LacZ (5×10^10 particles) was also administered to mouse liver either as virus alone in PBS, virus in combination with 40 μM Z-LLL in PBS, or virus in combination with 20 μM LLnL in PBS. Virus was directly instilled into portal vein of the C57B6 mice. AAV-mediated LacZ transgene expression was evaluated by histology staining at 2 and 4 weeks post infection in frozen tissue sections.

The subject of series [4] is IB3 cells. The series is described as follows: Nuclear versus cytoplasmic viral DNA fractionation in rAAV2-infected IB3 cells. Type of series: cell-based, human. The procedure:
(§1) LLnL and Z-LLL are two tripeptidyl aldehydes shown to inhibit calpains, cathepsins, cysteine proteases as well as the chymotrypsin-like protease activity of proteasomes (Wagner et al., 2002; Donkor, 2000; Sasaki et al., 1990). […] Both classes of proteasome inhibitors bind tightly to the proteasome complex. Dose response curves for these two proteasome-modulating agents were evaluated on IB3, A549, Hela, and primary fibroblasts. The responses were consistent for a number of cell lines and for three different promoters driving luciferase expression. For one set, CMV-driven luciferase constructs with an AAV2-based genome were employed that were packaged into AV2 or AV5 capsids. Cells were infected at various doses of AV2Luc and AV2/5Luc (MOIs 100 to 1000 particles/cell). At the time of infection, cells were treated with various concentrations of LLnL or Doxorubicin and gene expression was assayed at 24 hours post-infection. The effect of proteasome inhibitors on nuclear uptake of virus was evaluated using a previously-described protocol for fractionating viral DNA in the cytoplasm and nucleus (Xiao et al., 2002). Viral DNA content in the cytoplasmic and nuclear fractions was then evaluated by slot blot hybridization against a Luciferase DNA probe.

For series [5], the system named is A549 cells. As to the kind of experiment: rAAV transduction of A549 cells. The series is classed as cell-based, human. Particulars: for induction of rAAV transduction: 24 hours post-infection. How it is done: C. To determine whether combinations of agents that enhance rAAV transduction efficiency have synergistic or additive effects when used in combination, cells were contacted with the proteasome modulator, doxorubicin, and the proteasome inhibitor Z-LLL or LLnL. Different AAV vectors were tested, including splicing vectors and pseudotyped rAAV. Viral stocks utilized were as follows: Av2RSVluc, 5×10^8 particle/μl; Av2RSVlucCap5 (also referred to as Av2/5 CMVLuc), 2×10^9 particle/μl; Av2CMVluc, 1.3×10^9 particle/μl; and Av2CMVlucCap5, 1.1×109 particle/μl. Combinations of agents were compared to the agents used alone to determine the efficiency of transduction. LLnL was used at 40, 200 or 400 μM, Z-LLL at 4 μM and doxorubicin at 0.5 or 1 μM when employed alone. When a combination of LLnL and doxorubicin was used, LLnL was used at 4, 10, 20, 40, 200 or 400 μM and doxorubicin at 1 or 5 μM. The apical surface of polarized airway epithelia, HeLa cells or ferret fibroblast was contacted with the agents and rAAV (5×10^9 particles per well).
as §1

Series [6] relates to ENaC. As to the kind of experiment: Amiloride-sensitive Isc time course in polarized CuFi epithelia. Particulars: 1 to 14 days. Type of series: cell-based, human.
Series [7] deals with mouse lung. The series is described as follows: Intranasal AAV2-Luc with anthracyclines in Balb/c mice (lung luciferase). The series is classed as in vivo. Particulars: 10% HDE intranasal, day 7. The text has this: Animals were followed for seven days post dose.
The dose of modulator was based on the Human Dose Equivalent (HDE) and is summarized below in Table 4. For intranasal dose administration, the dose was held constant at 10% of the HDE.
On the day of sacrifice, the left lung was clamped off at the level of the extrapulmonary bronchi, removed and frozen on dry ice. The left lung was homogenized and processed for luciferase expression using Promega's luciferase assay system (Madison, Wis.). Luminescence was measured using the Berthold AutoLumat LB953 instrument. Samples were normalized for total protein using Pierce's Coomassie Plus Protein Assay Reagent (Rockford, Ill.).

Peptide text beside a SMILES is read from it. * marks the point of attachment. Cbz = O=C(OCc1ccccc1)*

`CC(C)C[C@@H](C=O)NC(=O)[C@H](CC(C)C)NC(=O)[C@H](CC(C)C)NC(=O)OCc1ccccc1` [Z-LLL, N-carbobenzoxyl-L-leucinyl-L-leucinyl-L-leucinal] (Cbz-Leu-Leu-Leu-aldehyde): in series [1], the “toxicity (histology of lung and liver, death of animals)” value is reported as “No toxicity”. Also, the rAAV transduction result in series [2] was “significantly increased rAAV transduction”. The “increase in rAAV transduction in the liver” value in series [3] is 7 fold.

Consider `COc1cccc2c1C(=O)c1c(O)c3c(c(O)c1C2=O)C[C@@](O)(C(=O)CO)C[C@@H]3O[C@H]1C[C@H](N)[C@H](O)[C@H](C)O1` [doxorubicin], for which the “fraction of viral DNA in the nuclear compartment” value in series [4] is “significantly increased the fraction of viral DNA in the nuclear compartment”. Moreover, the “concentration at which transduction was enhanced” value in series [5] was 5 µM. The “induction of rAAV transduction” value in series [5] came out at 200 fold. Also, the “ENaC Isc time course” value in series [6] is listed as “gradual decline in ENaC Isc”. Also, the “luciferase expression, Average” value in series [7] (both sexes) is 1.77E+06; in series [7] (female) it was 5.44E+05; in series [7] (male), “*4.21E+06”.

Regarding “N-acetyl-L-leucinyl-L-leucinal-L-norleucinal [LLnL]”, the “fraction of viral DNA in the nuclear compartment” value in series [4] is given as “significantly increased the fraction of viral DNA in the nuclear compartment”. Moreover, in series [5], the “concentration at which transduction was enhanced” value fell in the range of 200 to 400 µM and the “induction of rAAV transduction” value is reported as 10-fold lower levels of induction. The “toxicity (histology of lung and liver, death of animals)” value in series [1] was “No toxicity”. The rAAV transduction entry in series [2] is “significantly increased rAAV transduction”.
